Patent US20250162989A1, “USP30 INHIBITORS AND USES THEREOF” (Vincere Biosciences, Inc., priority 2021, published 2025)

target: recombinant USP30 (amino acids 57-517 of the human sequence) (Homo sapiens (Human), UniProt Q70CQ3); test: In vitro USP30 biochemical assay (Ubiquitin-Rhodamine substrate); details: 1.5 nM recombinant USP30, 25 nM Ubiquitin-Rhodamine, fluorescence
Procedure: In vitro biochemical assay to establish the potency of compounds for USP30 inhibition: a 384-well plate assay using a fluorophore tagged substrate of USP30 was used for in vitro screening of compounds. Each compound was tested at
10 different concentrations (0.5 to 10,000 nM) in duplicate wells. […] Data were analyzed using Graph Pad Prism software with a four-parameter (floating slope) fit to log concentration data to determine IC50s.

Chain of recombinant USP30 (amino acids 57-517 of the human sequence) (Q70CQ3 57-517): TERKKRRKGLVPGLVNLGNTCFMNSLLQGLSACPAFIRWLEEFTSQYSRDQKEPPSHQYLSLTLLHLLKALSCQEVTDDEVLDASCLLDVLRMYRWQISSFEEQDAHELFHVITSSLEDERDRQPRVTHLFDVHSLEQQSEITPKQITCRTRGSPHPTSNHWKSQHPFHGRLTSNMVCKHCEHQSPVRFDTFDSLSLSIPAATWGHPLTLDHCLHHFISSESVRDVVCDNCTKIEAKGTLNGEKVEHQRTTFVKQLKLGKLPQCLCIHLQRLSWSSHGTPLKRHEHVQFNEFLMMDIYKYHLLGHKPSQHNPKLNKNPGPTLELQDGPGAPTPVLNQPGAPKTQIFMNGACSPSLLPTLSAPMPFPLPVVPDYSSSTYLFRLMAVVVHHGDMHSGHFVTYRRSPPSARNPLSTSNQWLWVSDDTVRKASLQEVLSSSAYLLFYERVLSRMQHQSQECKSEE

SMILES | IC50 [µM]
CC(C)(CO)NS(=O)(=O)c1ccc(NC(=O)[C@H](CC2CCOCC2)NC(=O)c2ccc(F)cc2)cn1 [Compound I-74] | 0.05 to 1
CC(C)(C)NS(=O)(=O)c1ccc(NC(=O)[C@@H](NC(=O)c2ccc(F)cc2)C(C)(C)C)cc1 [Compound I-77] | 1 to 10
COc1cc(NC(=O)[C@H](CC2CCOCC2)NC(=O)c2ccc(F)cc2)cnc1S(=O)(=O)NC1CCN(C)CC1 [Compound I-83] | 1 to 10
COc1cc(NC(=O)[C@H](CC2CCN(C)CC2)NC(=O)c2ccc(F)cc2)ccc1S(=O)(=O)N[C@@H]1CCOC1 [Compound I-95] | 0.05 to 1
O=C(N[C@@H](CC1CCNCC1)C(=O)Nc1ccc(S(=O)(=O)N[C@@H]2CCOC2)nc1)c1ccc(F)cc1 [Compound I-108] | 0.05 to 1
O=C(N[C@@H](CC1CCNCC1)C(=O)Nc1ccc(S(=O)(=O)NC2COC2)nc1)c1ccc(F)cc1 [Compound I-111] | 1 to 10
CN1CCC(C[C@H](NC(=O)c2ccc(F)cc2)C(=O)Nc2ccc(S(=O)(=O)NC(C)(C)CF)cc2)CC1 [Compound I-127] | 0.05 to 1
CN1CCC(C[C@H](NC(=O)c2ccc(F)cc2)C(=O)Nc2ccc(S(=O)(=O)NC3CCOCC3)nc2)CC1 [Compound I-140] | 0.05 to 1
COc1cc(NC(=O)[C@H](Cc2ccccc2)NC(=O)c2ccc(F)cc2)c(Cl)cc1S(=O)(=O)NC(C)(CO)CO [Compound I-142] | 1 to 10
O=C(N[C@@H](CC1CCNCC1)C(=O)Nc1ccc(S(=O)(=O)NC2CCOCC2)nc1)c1ccc(F)cc1 [Compound I-144] | 0.05 to 1
CC(C)(C)NS(=O)(=O)c1ccc(NC(=O)[C@H](Cc2ccccc2)NC(=O)c2cc[nH]n2)cc1 [Compound I-178] | 1 to 10
CC(C)(C)NS(=O)(=O)c1ccc(NC(=O)[C@H](Cc2ccccc2)NC(=O)N2CC3(COC3)C2)cc1 [Compound I-179] | 1 to 10
CN1CCN(C(=O)N[C@@H](Cc2ccccc2)C(=O)Nc2ccc(S(=O)(=O)NC(C)(C)C)cc2)CC1 [Compound I-180] | 1 to 10
CN1CCC(C[C@H](NC(=O)c2ccc(F)nc2)C(=O)Nc2ccc(S(=O)(=O)NC(C)(C)C)cc2)CC1 [Compound I-183] | 0.05 to 1
CC(C)(C)NS(=O)(=O)c1ccc(NC(=O)[C@H](Cc2ccccc2)NC(=O)c2cncnc2)cc1 [Compound I-188] | 0.05 to 1
CC(C)(C)NS(=O)(=O)c1ccc(NC(=O)[C@H](Cc2ccccc2)NC(=O)c2ccc3nn[nH]c3c2)cc1 [Compound I-189] | 0.05 to 1
CC(C)[C@H](NC(=O)c1ccc(F)cc1)C(=O)Nc1ccc(S(=O)(=O)NC(C)(C)C)cc1 [Compound I-206] | 0.05 to 1
CC(C)(NS(=O)(=O)c1ccc(NC(=O)[C@H](CC2CCOCC2)NC(=O)c2ccc(F)cn2)cc1)C(F)(F)F [Compound I-207] | 0.05 to 1
CC(C)C[C@H](NC(=O)c1ccc(F)cn1)C(=O)Nc1ccc(S(=O)(=O)NC(C)(C)C(F)(F)F)nc1 [Compound I-210] | 0.05 to 1

Continued, values first:

IC50 [µM] | SMILES
0.05 to 1 | O=C(N[C@@H](Cc1ccccc1)C(=O)Nc1ccc(S(=O)(=O)NC23CC(C2)C3)c(O)c1)c1ccc(F)cc1 [Compound I-64]
1 to 10 | COc1cc(NC(=O)[C@H](CC(C)C)NC(=O)c2ccc(F)cc2)cnc1S(=O)(=O)NC(C)(C)CO [Compound I-73]
0.05 to 1 | COc1cc(NC(=O)[C@H](CC2CCOCC2)NC(=O)c2ccc(F)cc2)cnc1S(=O)(=O)NC(C)(C)C [Compound I-75]
0.05 to 1 | COc1cc(NC(=O)[C@H](CC2CCOCC2)NC(=O)c2ccc(F)cc2)cnc1S(=O)(=O)NC(C)(C)CO [Compound I-76]
0.05 to 1 | COc1cc(NC(=O)[C@H](CC2CCN(C)CC2)NC(=O)c2ccc(F)cc2)cnc1S(=O)(=O)NC(C)(C)C [Compound I-80]
0.05 to 1 | COc1cc(NC(=O)[C@H](CC2CCOCC2)NC(=O)c2ccc(F)cc2)cnc1S(=O)(=O)NC1CCC1 [Compound I-81]
0.05 to 1 | COc1cc(NC(=O)[C@H](CC2CCOCC2)NC(=O)c2ccc(F)cc2)ccc1S(=O)(=O)NC1CCN(C)CC1 [Compound I-88]
0.05 to 1 | COc1cc(NC(=O)[C@H](CC2CCN(C)CC2)NC(=O)c2ccc(F)cc2)ccc1S(=O)(=O)NC1COC1 [Compound I-96]
1 to 10 | CN1CCC(NS(=O)(=O)c2ccc(NC(=O)[C@H](CC3CCOCC3)NC(=O)c3ccc(F)cc3)cn2)CC1 [Compound I-98]
1 to 10 | COc1cc(NC(=O)[C@H](CC2CCN(C)CC2)NC(=O)c2ccc(F)cc2)cnc1S(=O)(=O)NC(C)(C)CO [Compound I-100]
1 to 10 | CN1CCC(C[C@H](NC(=O)c2ccc(F)cc2)C(=O)Nc2ccc(S(=O)(=O)NC3COC3)nc2)CC1 [Compound I-104]
0.05 to 1 | O=C(NC(CC1CCNCC1)C(=O)Nc1ccc(S(=O)(=O)NC2COC2)cc1)c1ccc(F)cc1 (centres unmarked) [Compound I-120]
1 to 10 | N#CN1CC[C@H](NC(=O)[C@H](Cc2ccccc2)NC(=O)c2ccc(F)cc2)C1 [Compound I-123]
0.05 to 1 | COc1cc(NC(=O)[C@H](CC2CCOCC2)NC(=O)c2ccc(F)cc2)ccc1S(=O)(=O)NC1CCOCC1 [Compound I-134]
0.05 to 1 | COc1cc(NC(=O)[C@H](CC2CCNCC2)NC(=O)c2ccc(F)cc2)ccc1S(=O)(=O)NC1CCOCC1 [Compound I-135]
1 to 10 | COc1cc(NC(=O)[C@H](Cc2ccccc2)NC(=O)c2ccc(F)cc2)c(Cl)cc1S(=O)(=O)NC1(CO)CC1 [Compound I-139]
1 to 10 | CC(C)(C)NS(=O)(=O)c1ccc(NC(=O)[C@H](Cc2ccccc2)NC(=O)N2CCOCC2)cc1 [Compound I-184]
1 to 10 | CC(C)(C)NS(=O)(=O)c1ccc(NC(=O)[C@H](Cc2ccccc2)NC(=O)c2ccc3cn[nH]c3c2)cc1 [Compound I-190]
1 to 10 | CC(C)(C)NS(=O)(=O)c1ccc(NC(=O)[C@H](Cc2ccccc2)NC(=O)C2CCNCC2)cc1 [Compound I-192]
1 to 10 | CC(C)(C)NS(=O)(=O)c1ccc(NC(=O)[C@H](Cc2ccccc2)NC(=O)c2ccc3nc[nH]c3c2)cc1 [Compound I-194]
0.05 to 1 | CC(C)(C)NS(=O)(=O)c1cccc2c(NC(=O)[C@H](Cc3ccccc3)NC(=O)N3CCOCC3)cccc12 [Compound I-195]
0.05 to 1 | CC(C)(C)NS(=O)(=O)c1cccc2c(NC(=O)[C@H](Cc3ccccc3)NC(=O)N3CC4(COC4)C3)cccc12 [Compound I-197]
0.05 to 1 | CC(C)C[C@H](NC(=O)c1ccc(F)cc1)C(=O)Nc1ccc(S(=O)(=O)NC(C)(C)C(F)(F)F)nc1 [Compound I-203]
0.05 to 1 | CC(C)C[C@H](NC(=O)c1ccc(F)cn1)C(=O)Nc1ccc(S(=O)(=O)NC(C)(C)C(F)(F)F)cc1 [Compound I-204]

same assay, conditions: […] recombinant USP30, 25 nM Ubiquitin-Rhodamine, fluorescence

SMILES | IC50 [µM]
CC(C)(C)NS(=O)(=O)c1ccc(NC(=O)C(Cc2ccccc2)c2nnc(-c3ccc(F)cc3)[nH]2)cc1 (centres unmarked) [Compound I-90] | > 10
CNS(=O)(=O)N1CCC(NC(=O)[C@H](Cc2ccccc2)NC(=O)c2ccc(F)cc2)CC1 [Compound I-118] | > 10
CNC(=O)N1CCC(NC(=O)[C@H](Cc2ccccc2)NC(=O)c2ccc(F)cc2)CC1 [Compound I-119] | > 10
O=C(N[C@@H](Cc1ccccc1)C(=O)N[C@@H]1CCNC1)c1ccc(F)cc1 [Compound I-146] | > 10
CN1CC[C@@H](NC(=O)[C@H](Cc2ccccc2)NC(=O)c2ccc(F)cc2)C1 [Compound I-152] | > 10
O=C(N[C@@H](Cc1ccccc1)C(=O)N[C@@H]1CCN(S(=O)(=O)NC2CCOC2)C1)c1ccc(F)cc1 (some centres unmarked) [Compound I-170] | > 10
CC(C)(C)NS(=O)(=O)c1ccc(NC(=O)[C@H](Cc2ccccc2)NC(=O)c2ncccn2)cc1 [Compound I-191] | > 10
CN1CCN(C(=O)N[C@@H](Cc2ccccc2)C(=O)Nc2cccc3c(S(=O)(=O)NC(C)(C)C)cccc23)CC1 [Compound I-198] | > 10

The remaining lines, values ahead:

IC50 [µM] | SMILES
< 0.05 | CC(C)(C)NS(=O)(=O)c1ccc(NC(=O)[C@H](Cc2ccccc2)NC(=O)c2ccc(F)cc2)cc1O [Compound I-63]
> 10 | CC(C)(C)NS(=O)(=O)c1ccc(NC(=O)C(Cc2ccccc2)c2nnc(-c3ccccc3)[nH]2)cc1 (centres unmarked) [Compound I-89]
1 to 10 | O=C(Nc1ccc(S(=O)(=O)N[C@@H]2CCOC2)cc1)[C@@H]1C[C@@H](c2ccccc2)CN1C(=O)c1ccc(F)cc1 [Compound I-92]
> 10 | O=C(N[C@@H](Cc1ccccc1)C(=O)NC1CCN(C(=O)OCc2ccccc2)CC1)c1ccc(F)cc1 [Compound I-113]
> 10 | CC(=O)N1CCC(NC(=O)[C@H](Cc2ccccc2)NC(=O)c2ccc(F)cc2)CC1 [Compound I-114]
< 0.05 | CC(C)(C)NS(=O)(=O)c1ccc(NC(=O)[C@H](CC2CCN(c3ccccc3)CC2)NC(=O)c2ccc(F)cc2)cc1 [Compound I-116]
> 10 | N#CN1CCC(NC(=O)[C@H](Cc2ccccc2)NC(=O)c2ccc(F)cc2)CC1 [Compound I-124]
< 0.05 | CC(C)(NS(=O)(=O)c1ccc(NC(=O)[C@H](CC2CCOCC2)NC(=O)c2ccc(F)cc2)cc1)C(F)(F)F [Compound I-126]
> 10 | N#CCN1CC[C@@H](NC(=O)[C@H](Cc2ccccc2)NC(=O)c2ccc(F)cc2)C1 [Compound I-154]
> 10 | CC(C)(C)NS(=O)(=O)N1CC[C@@H](NC(=O)[C@H](Cc2ccccc2)NC(=O)c2ccc(F)cc2)C1 [Compound I-162]
> 10 | O=C(N[C@@H](Cc1ccccc1)C(=O)N[C@@H]1CCN(S(=O)(=O)NC2COC2)C1)c1ccc(F)cc1 [Compound I-169]
> 10 | CC(C)(C)NS(=O)(=O)c1ccc(NC(=O)[C@H](Cc2ccccc2)NC(=O)c2c[nH]cn2)cc1 [Compound I-176]
> 10 | CC(C)(C)NS(=O)(=O)c1ccc(NC(=O)[C@H](Cc2ccccc2)NC(=O)c2cc[nH]c2)cc1 [Compound I-181]
> 10 | CC(C)(C)NS(=O)(=O)c1cccc2c(NC(=O)[C@H](Cc3ccccc3)NC(=O)C3CCNCC3)cccc12 [Compound I-187]
